Results reported in publication PMC9412534, “Diindolylmethane Derivatives: New Selective Blockers for T-Type Calcium Channels” (Membranes, 2022).

System: MCF-7, T-47D, A549 and HT-29 cells
Experiment: Cell viability MTT assay, four cancer cell lines (overall)
Type: cell-based, human
Details: 50 µM, 72 h
Description: Human breast cancer cell line MCF-7 and T-47D, lung cancer cell line A549, and colon cancer cell line HT-29 were cultured under 5% carbon dioxide at 37 °C in DMEM Glutamax (Gibco, Life Technologies) supplemented with 10% (v/v) FBS. They were split in a ratio of 1:3–1:6 (ideally 2–4 × 10,000 cells/cm^2) when they reached 70–80% confluence using 0.25% Trypsin-EDTA. For cell viability MTT assay, cells were seeded into 96-well clear bottom culture plates (Corning, Lowell, MA, USA) at a density of 5 × 10^3 cells/well and settled at 37 °C for 24 h.
Seeded cells were treated with various concentrations of compounds for desired time period (24, 48 and 72 h). After the treatments, the media were removed from each well, and replaced with 25 μL of serum-free media and 25 μL of MTT Reagent (cat. no., ab211091; Abcam, Cambridge, MA, USA). The plate was then incubated at 37 °C for 3 h, and 75 μL of MTT Solvent (cat. no., ab211091; Abcam) was added into each well after incubation. The absorbance was evaluated at 590 nm. Cell-wells treated with 0.1% DMSO were used as positive control and no cell-wells were used as background control.

Structure (SMILES): O=C(c1cn(Cc2ccccc2)c2ccccc12)c1cn(Cc2ccccc2)c2ccccc12 [IX, bis(1-benzyl-1H-indol-3-yl)methanone]
- effect on cancer cell viability: did not affect cancer cell viability
